Data published in paper PMC3625376 (Journal of the American Chemical Society, 2013).

System: blood glucose in diabetic rats
Assay: diabetic rat assay
Format: in vivo
Conditions: Figure 5 panels C and D

Substance	activity in lowering blood glucose in diabetic rats (in words)
WT insulin (biosynthetic): wild type (wt) biosynthetic insulin used as positive control	fully active
[Asp^B10, Lys^B28, Pro^B29]-insulin [DKP insulin (biosynthetic)]	fully active
